Experimental data taken from patent US20120059162A1, “FUSED IMIDAZOLE DERIVATIVE HAVING TTK INHIBITORY ACTION” (Oncotherapy Science, Inc., priority 2009, published 2012).
Read-outs that look alike come from different tables or passages of the source.

Legend:
TTK = biological target: T1, TTK (Homo sapiens, UniProt P33981); assay: TTK assay: screening of TTK kinase activity suppressing action using p38 MAPK peptide; format: biochemical; conditions: read-out: TTK IC50
T1 sequence (P33981 1-857): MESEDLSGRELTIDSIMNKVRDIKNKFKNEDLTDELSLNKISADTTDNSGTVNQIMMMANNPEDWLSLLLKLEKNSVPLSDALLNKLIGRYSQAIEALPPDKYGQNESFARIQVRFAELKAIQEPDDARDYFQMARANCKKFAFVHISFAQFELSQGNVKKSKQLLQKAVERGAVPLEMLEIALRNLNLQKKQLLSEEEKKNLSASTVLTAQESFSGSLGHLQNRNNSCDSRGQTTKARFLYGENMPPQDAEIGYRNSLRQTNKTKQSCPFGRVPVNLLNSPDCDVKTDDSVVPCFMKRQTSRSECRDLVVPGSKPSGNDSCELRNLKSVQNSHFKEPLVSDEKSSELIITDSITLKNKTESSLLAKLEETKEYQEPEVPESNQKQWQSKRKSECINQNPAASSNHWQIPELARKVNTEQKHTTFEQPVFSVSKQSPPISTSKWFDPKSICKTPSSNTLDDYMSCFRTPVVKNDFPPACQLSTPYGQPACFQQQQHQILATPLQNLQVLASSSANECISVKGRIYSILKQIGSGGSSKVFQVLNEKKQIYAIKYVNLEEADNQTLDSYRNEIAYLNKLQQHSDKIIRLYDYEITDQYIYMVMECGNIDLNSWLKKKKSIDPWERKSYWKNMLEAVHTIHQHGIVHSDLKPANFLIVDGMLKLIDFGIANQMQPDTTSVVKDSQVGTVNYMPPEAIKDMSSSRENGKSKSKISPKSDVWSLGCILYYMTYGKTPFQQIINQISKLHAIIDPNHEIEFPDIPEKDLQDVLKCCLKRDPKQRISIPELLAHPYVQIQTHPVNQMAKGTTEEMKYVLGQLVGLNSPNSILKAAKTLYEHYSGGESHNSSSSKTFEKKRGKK
Summary of the method: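 TTK (4 μg/ml in enzyme solution) mixed with p38 MAPK peptide and ATP (each 60 μM in substrate solution) in Tris-HCl pH 7.5 with MgCl2, DTT, Na3VO4, β-glycerophosphate, BSA. Reaction aliquot captured on NeutrAvidin plate, detected with Eu-labelled anti-mouse IgG by time-resolved fluorescence; inhibition relative to no-compound signal.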

A549 = A549 assay: screening of cancer cell growth inhibiting compound; format: cell-based; conditions: Homo sapiens, A549 cells, read-out: A549 IC50
Summary of the method: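 A549 cells (1×10^4/ml) in D-MEM with 10% FBS were pre-incubated one day at 37 °C, then exposed to compound dilutions for three further days. Viable cell number read by WST-8 (1–4 hours), absorbance 450 nm (reference 620 nm); inhibition calculated relative to untreated wells.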

Row | SMILES | IC50 (TTK; p38 MAPK peptide substrate) [nM] | IC50 (A549; 72 h, three days, WST-8) [nM] | IC50 (TTK) [nM] | IC50 (A549; values given as IC50 intervals) [nM]
1 | CC(C)(C)CNc1cc(NC2CCCCC2)nn2c(-c3ccc(C(=O)NC4CC4)cc3)cnc12 [Example 2-135] | 9.6 | 50 to 500 | – | –
2 | O=C(NC1CC1)c1ccc(-c2cnc3c(NCCSCCO)cc(NC4CCCCC4)nn23)cc1 [Example 2-136] | 7.3 | 50 to 500 | – | –
3 | CCC(C)CNc1cc(NC2CCCCC2)nn2c(-c3ccc(C(=O)NC4CC4)cc3)cnc12 (stereo not shown) [Example 2-137] | 7.3 | 50 to 500 | – | –
4 | COCCCCNc1cc(NC2CCCCC2)nn2c(-c3ccc(C(=O)NC4CC4)cc3)cnc12 [Example 2-138] | 5.5 | 50 to 500 | – | –
5 | CC(C)CCNc1cc(NC2CCCCC2)nn2c(-c3ccc(C(=O)NC4CC4)cc3)cnc12 [Example 2-139] | 10.5 | 50 to 500 | – | –
6 | CCCNc1cc(NC2CCCCC2)nn2c(-c3ccc(C(=O)NC4CC4)cc3)cnc12 [Example 2-141] | 7 | 50 to 500 | – | –
7 | CCC(C)Nc1cc(NC2CCCCC2)nn2c(-c3ccc(C(=O)NC4CC4)cc3)cnc12 (stereo not shown) [Example 2-143] | 19.8 | 500 to 1000 | – | –
8 | O=C(NC1CC1)c1ccc(-c2cnc3c(NCC(F)F)cc(NC4CCCCC4)nn23)cc1 [Example 2-144] | 3.5 | 50 to 500 | – | –
9 | O=C(NC1CC1)c1ccc(-c2cnc3c(NCC(F)(F)F)cc(NC4CCCCC4)nn23)cc1 [Example 2-145] | 3 | 50 to 500 | – | –
10 | O=C(NC1CC1)c1ccc(-c2cnc3c(NCC4CCS(=O)(=O)CC4)cc(NC4CCCCC4)nn23)cc1 [Example 2-146] | 3.8 | 500 to 1000 | – | –
11 | O=C(NC1CC1)c1ccc(-c2cnc3c(NCc4cncs4)cc(NC4CCCCC4)nn23)cc1 [Example 2-147] | 2.9 | 50 to 500 | – | –
12 | Cn1cncc1CNc1cc(NC2CCCCC2)nn2c(-c3ccc(C(=O)NC4CC4)cc3)cnc12 [Example 2-148] | 3.9 | 500 to 1000 | – | –
13 | Cn1cnc(CNc2cc(NC3CCCCC3)nn3c(-c4ccc(C(=O)NC5CC5)cc4)cnc23)c1 [Example 2-149] | 5.4 | 50 to 500 | – | –
14 | Cn1cc(CNc2cc(NC3CCCCC3)nn3c(-c4ccc(C(=O)NC5CC5)cc4)cnc23)cn1 [Example 2-150] | 3.8 | 50 to 500 | – | –
15 | O=C(NC1CC1)c1ccc(-c2cnc3c(NCc4cccs4)cc(NC4CCCCC4)nn23)cc1 [Example 2-151] | 3.1 | 50 to 500 | – | –
16 | O=C(NC1CC1)c1ccc(-c2cnc3c(NCc4ccco4)cc(NC4CCCCC4)nn23)cc1 [Example 2-152] | 3.6 | 50 to 500 | – | –
17 | O=C(NC1CC1)c1ccc(-c2cnc3c(NCC45CCN(CC4)CC5)cc(NC4CCCCC4)nn23)cc1 [Example 2-153] | 7.5 | 50 to 500 | – | –
18 | O=C(NC1CC1)c1ccc(-c2cnc3c(NCc4ccccn4)cc(NC4CCCCC4)nn23)cc1 [Example 2-154] | 5 | 50 to 500 | – | –
19 | O=C(NC1CC1)c1ccc(-c2cnc3c(NCc4ccncc4)cc(NC4CCCCC4)nn23)cc1 [Example 2-155] | 4.1 | 50 to 500 | – | –
20 | O=C(NC1CC1)c1ccc(-c2cnc3c(NCc4cccnc4)cc(NC4CCCCC4)nn23)cc1 [Example 2-156] | 4.4 | 50 to 500 | – | –
21 | O=C(NC1CC1)c1ccc(-c2cnc3c(NCc4ccoc4)cc(NC4CCCCC4)nn23)cc1 [Example 2-157] | 3.4 | 50 to 500 | – | –

Next, values leading:

Row | IC50 (TTK; p38 MAPK peptide substrate) [nM] | IC50 (A549; 72 h, three days, WST-8) [nM] | IC50 (TTK) [nM] | IC50 (A549; values given as IC50 intervals) [nM] | SMILES
22 | 3.2 | 50 to 500 | – | – | Cc1cc(CNc2cc(NC3CCCCC3)nn3c(-c4ccc(C(=O)NC5CC5)cc4)cnc23)no1 [Example 2-158]
23 | 26.1 | 50 to 500 | – | – | Cn1ccc(CNc2cc(NC3CCCCC3)nn3c(-c4ccc(C(=O)NC5CC5)cc4)cnc23)n1 [Example 2-159]
24 | 3.1 | 50 to 500 | – | – | O=C(NC1CC1)c1ccc(-c2cnc3c(NCc4nccs4)cc(NC4CCCCC4)nn23)cc1 [Example 2-160]
25 | 5.6 | 500 to 1000 | – | – | CC(C)ONc1cc(NC2CCCCC2)nn2c(-c3ccc(C(=O)NC4CC4)cc3)cnc12 [Example 2-161]
26 | 3.6 | 50 to 500 | – | – | CC(CNc1cc(NC2CCCCC2)nn2c(-c3ccc(C(=O)NC4CC4)cc3)cnc12)C(F)(F)F (stereo not shown) [Example 2-162]
27 | 3.3 | 50 to 500 | – | – | O=C(NC1CC1)c1ccc(-c2cnc3c(NC[C@H]4CC[C@H](O)CC4)cc(NC4CCCCC4)nn23)cc1 [Example 2-164]
28 | 5.6 | 1000 to 10000 | – | – | O=C(NC1CC1)c1ccc(-c2cnc3c(NCc4ccc(=O)[nH]c4)cc(NC4CCCCC4)nn23)cc1 [Example 2-165]
29 | 4.5 | 50 to 500 | – | – | COC(C)CNc1cc(NC2CCCCC2)nn2c(-c3ccc(C(=O)NC4CC4)cc3)cnc12 (stereo not shown) [Example 2-166]
30 | – | – | 3.9 | 50 to 500 | O=C(NC1CC1)c1ccc(-c2cnc3c(NCC4CCCO4)cc(NC4CCCCC4)nn23)cc1 (stereo not shown) [Example 2-167]
31 | – | – | 3.3 | 50 to 500 | CC(CO)CNc1cc(NC2CCCCC2)nn2c(-c3ccc(C(=O)NC4CC4)cc3)cnc12 (stereo not shown) [Example 2-168]
32 | – | – | 7.2 | 50 to 500 | O=C(NC1CC1)c1ccc(-c2cnc3c(NCC4(O)CCOCC4)cc(NC4CCCCC4)nn23)cc1 [Example 2-169]
33 | – | – | 3.5 | 50 to 500 | CC1(Oc2cc(NCC3CCOCC3)c3ncc(-c4ccc(C(=O)NC5CC5)cc4)n3n2)CCCCC1 [Example 2-171, N-Cyclopropyl-4-(6-(1-methylcyclohexyloxy)-8-((tetrahydro-2H-pyran-4-yl)methylamino)imidazo[1,2-b]pyridazin-3-yl)benzamide]
34 | – | – | 20.3 | 500 to 1000 | COc1cc(NCC2CCOCC2)c2ncc(-c3ccc(C(=O)NC4CC4)cc3)n2n1 [Example 2-172]
35 | – | – | 5.4 | 50 to 500 | O=C(NC1CC1)c1ccc(-c2cnc3c(NCC4CCOCC4)cc(OC4CCCC4)nn23)cc1 [Example 2-173]
36 | – | – | 14.1 | 50 to 500 | CC(Oc1cc(NCC2CCOCC2)c2ncc(-c3ccc(C(=O)NC4CC4)cc3)n2n1)c1ccccc1 (stereo not shown) [Example 2-174]
37 | – | – | 11.4 | 50 to 500 | COCCOc1cc(NCC2CCOCC2)c2ncc(-c3ccc(C(=O)NC4CC4)cc3)n2n1 [Example 2-175]
38 | – | – | 14.3 | 50 to 500 | N#Cc1ccc(Oc2cc(NCC3CCOCC3)c3ncc(-c4ccc(C(=O)NC5CC5)cc4)n3n2)cc1 [Example 2-177]
39 | – | – | 7.1 | 50 to 500 | CC(C)Oc1cc(NCC2CCOCC2)c2ncc(-c3ccc(C(=O)NC4CC4)cc3)n2n1 [Example 2-178]
40 | – | – | 3.7 | ≤ 50 | COc1ccc(Oc2cc(NCC3CCOCC3)c3ncc(-c4ccc(C(=O)NC5CC5)cc4)n3n2)cc1 [Example 2-179]
41 | – | – | 12.2 | 1000 to 10000 | O=C(NC1CC1)c1ccc(-c2cnc3c(NCC4CCOCC4)cc(OC4CCNCC4)nn23)cc1 [Example 2-180]
42 | – | – | 10.2 | 50 to 500 | O=C(NC1CC1)c1ccc(-c2cnc3c(NCC4CCOCC4)cc(OC4CCCCCC4)nn23)cc1 [Example 2-181]
43 | – | – | 8.4 | 50 to 500 | CC(C)(C)Oc1cc(NCC2CCOCC2)c2ncc(-c3ccc(C(=O)NC4CC4)cc3)n2n1 [Example 2-182]
44 | – | – | 5.7 | 50 to 500 | O=C(NC1CC1)c1ccc(-c2cnc3c(NCC4CCOCC4)cc(OCC(F)(F)F)nn23)cc1 [Example 2-183]
45 | – | – | 5.6 | 50 to 500 | CC(Oc1cc(NCC2CCOCC2)c2ncc(-c3ccc(C(=O)NC4CC4)cc3)n2n1)C(F)(F)F (stereo not shown) [Example 2-184]
46 | – | – | 2.7 | 50 to 500 | CC(C)(Oc1cc(NCC2CCOCC2)c2ncc(-c3ccc(C(=O)NC4CC4)cc3)n2n1)C(F)(F)F [Example 2-185]
47 | – | – | 6.8 | 500 to 1000 | O=C(NC1CC1)c1ccc(-c2cnc3c(NCC4CCOCC4)cc(OC4CCC(C(F)(F)F)CC4)nn23)cc1 (stereo not shown) [Example 2-186]
48 | – | – | 7.8 | 500 to 1000 | CC1(C)CCC(Oc2cc(NCC3CCOCC3)c3ncc(-c4ccc(C(=O)NC5CC5)cc4)n3n2)CC1 [Example 2-187]
49 | – | – | 5.3 | 50 to 500 | O=C(NC1CC1)c1ccc(-c2cnc3c(NCC4CCOCC4)cc(OC4CCCCC4O)nn23)cc1 (stereo not shown) [Example 2-188]
50 | – | – | 8.6 | 500 to 1000 | NC1CCCCC1Oc1cc(NCC2CCOCC2)c2ncc(-c3ccc(C(=O)NC4CC4)cc3)n2n1 (stereo not shown) [Example 2-189]
